From ChEMBL document CHEMBL1201862, “PubChem BioAssay data set” (2004)
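Protocol summary: plate cells (96-well), add compound at 5 concentrations, incubate 48 h, interpolate endpoints linearly. GI50: concentration for 50% inhibition of growth.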 Active and inactive are the calls of the source. No stated cut-off is given here; in the data, active = GI50 up to about 1.1 µM and inactive = higher.

Experiments:
Test in all cases: NCI-60 cell line screen, 48 h
SF-539 = test system: SF-539
UACC-257 = test system: UACC-257
HOP-92 = test system: HOP-92
NCI-H460 = test system: NCI-H460
HOP-62 = test system: HOP-62
IGROV-1 = test system: IGROV-1
COLO 205 = test system: COLO 205
LOX IMVI = test system: LOX IMVI
KM-20L2 = test system: KM-20L2
SK-MEL-5 = test system: SK-MEL-5
EKVX = test system: EKVX
TK-10 = test system: TK-10
UACC-62 = test system: UACC-62
786-0 = test system: 786-0
OVCAR-8 = test system: OVCAR-8
DLD-1 = test system: DLD-1
OVCAR-4 = test system: OVCAR-4
SK-MEL-28 = test system: SK-MEL-28
UO-31 = test system: UO-31
SW-620 = test system: SW-620
NCI-H23 = test system: NCI-H23
SNB-75 = test system: SNB-75
HCT-116 = test system: HCT-116
SR = test system: SR
OVCAR-5 = test system: OVCAR-5
LXFL 529 = test system: LXFL 529
SF-268 = test system: SF-268
HT-29 = test system: HT-29
U-251 = test system: U-251
CCRF-CEM = test system: CCRF-CEM
RXF 631 = test system: RXF 631
SNB-78 = test system: SNB-78
SF-295 = test system: SF-295
M19-MEL = test system: M19-MEL
SK-OV-3 = test system: SK-OV-3
Malme-3M = test system: Malme-3M
HL-60 = test system: HL-60
A498 = test system: A498
KM12 = test system: KM12
NCI-H226 = test system: NCI-H226
RPMI-8226 = test system: RPMI-8226
NCI-H522 = test system: NCI-H522
HOP-18 = test system: HOP-18
ACHN = test system: ACHN
DMS-273 = test system: DMS-273
K562 = test system: K562
DMS-114 = test system: DMS-114
OVCAR-3 = test system: OVCAR-3
RXF 393 = test system: RXF 393
A549 = test system: A549
HCC 2998 = test system: HCC 2998
SN12C = test system: SN12C
HCT-15 = test system: HCT-15
SNB-19 = test system: SNB-19
M14 = test system: M14
MOLT-4 = test system: MOLT-4
SK-MEL-2 = test system: SK-MEL-2
CAKI-1 = test system: CAKI-1
XF498 = test system: XF498

CC1OC(n2cc(F)c(=O)[nH]c2=O)C=CC1O (stereo not drawn)
GI50 (SF-539): > 100 µM (inactive)
GI50 (UACC-257): > 100 µM (inactive)
GI50 (HOP-92): > 100 µM (inactive)
GI50 (NCI-H460): > 100 µM (inactive)
GI50 (HOP-62): > 100 µM (inactive)
GI50 (IGROV-1): > 100 µM (inactive)
GI50 (COLO 205): > 100 µM (inactive)
GI50 (LOX IMVI): > 43.2 µM (inactive)
GI50 (KM-20L2): > 100 µM (inactive)
GI50 (SK-MEL-5): > 100 µM (inactive)
GI50 (EKVX): > 100 µM (inactive)
GI50 (TK-10): > 100 µM (inactive)
GI50 (UACC-62): > 100 µM (inactive)
GI50 (786-0): > 100 µM (inactive)
GI50 (OVCAR-8): > 100 µM (inactive)
GI50 (DLD-1): > 100 µM (inactive)
GI50 (OVCAR-4): > 100 µM (inactive)
GI50 (SK-MEL-28): > 100 µM (inactive)
GI50 (UO-31): > 100 µM (inactive)
GI50 (SW-620): > 46 µM (inactive)
GI50 (NCI-H23): > 100 µM (inactive)
GI50 (SNB-75): > 100 µM (inactive)
GI50 (HCT-116): > 100 µM (inactive)
GI50 (SR): > 100 µM (inactive)
GI50 (OVCAR-5): > 100 µM (inactive)
GI50 (LXFL 529): > 100 µM (inactive)
GI50 (SF-268): > 100 µM (inactive)
GI50 (HT-29): > 100 µM (inactive)
GI50 (U-251): > 100 µM (inactive)
GI50 (CCRF-CEM): > 51.3 µM (inactive)
GI50 (RXF 631): > 100 µM (inactive)
GI50 (SNB-78): > 100 µM (inactive)
GI50 (SF-295): > 100 µM (inactive)
GI50 (M19-MEL): > 100 µM (inactive)
GI50 (SK-OV-3): > 100 µM (inactive)
GI50 (Malme-3M): > 100 µM (inactive)
GI50 (HL-60): 37.2 µM (inactive)
GI50 (A498): > 100 µM (inactive)
GI50 (KM12): > 100 µM (inactive)
GI50 (NCI-H226): > 100 µM (inactive)
GI50 (RPMI-8226): > 92.3 µM (inactive)
GI50 (NCI-H522): > 100 µM (inactive)
GI50 (HOP-18): > 100 µM (inactive)
GI50 (ACHN): > 100 µM (inactive)
GI50 (DMS-273): > 100 µM (inactive)
GI50 (K562): > 57.8 µM (inactive)
GI50 (DMS-114): > 100 µM (inactive)
GI50 (OVCAR-3): > 100 µM (inactive)
GI50 (RXF 393): > 100 µM (inactive)
GI50 (A549): > 100 µM (inactive)
GI50 (HCC 2998): > 100 µM (inactive)
GI50 (SN12C): > 100 µM (inactive)
GI50 (HCT-15): > 100 µM
GI50 (SNB-19): > 100 µM (inactive)
GI50 (M14): > 100 µM (inactive)
GI50 (MOLT-4): > 100 µM (inactive)
GI50 (SK-MEL-2): > 100 µM (inactive)
GI50 (CAKI-1): > 100 µM (inactive)
GI50 (XF498): > 100 µM (inactive)

O=C(c1ccccc1)C1OC12C(=O)Nc1c(Cl)cc(Cl)cc12 (stereo not drawn)
GI50 (SF-539): 45.8 µM (inactive)
GI50 (UACC-257): > 100 µM (inactive)
GI50 (HOP-92): > 35.9 µM (inactive)
GI50 (NCI-H460): 30.3 µM (inactive)
GI50 (HOP-62): > 55.2 µM (inactive)
GI50 (IGROV-1): > 59.4 µM (inactive)
GI50 (COLO 205): 19.7 µM (inactive)
GI50 (LOX IMVI): 23.4 µM (inactive)
GI50 (KM-20L2): 72.1 µM (inactive)
GI50 (SK-MEL-5): > 74.3 µM (inactive)
GI50 (EKVX): 57.8 µM (inactive)
GI50 (TK-10): > 94.4 µM (inactive)
GI50 (UACC-62): 29.9 µM (inactive)
GI50 (786-0): 16.3 µM (inactive)
GI50 (OVCAR-8): 17 µM (inactive)
GI50 (DLD-1): 18.6 µM (inactive)
GI50 (OVCAR-4): 8.2 µM (inactive)
GI50 (SK-MEL-28): > 100 µM (inactive)
GI50 (UO-31): > 57.1 µM (inactive)
GI50 (SW-620): 16.1 µM (inactive)
GI50 (NCI-H23): 58.2 µM (inactive)
GI50 (SNB-75): 7.87 µM (inactive)
GI50 (HCT-116): 23.7 µM (inactive)
GI50 (SR): 11.6 µM (inactive)
GI50 (OVCAR-5): > 100 µM (inactive)
GI50 (LXFL 529): 23.6 µM (inactive)
GI50 (SF-268): 35.2 µM (inactive)
GI50 (HT-29): 33.6 µM (inactive)
GI50 (U-251): 41.5 µM (inactive)
GI50 (CCRF-CEM): 8.65 µM (inactive)
GI50 (RXF 631): 27 µM (inactive)
GI50 (SNB-78): > 50.5 µM (inactive)
GI50 (SF-295): 47.2 µM (inactive)
GI50 (M19-MEL): 27 µM (inactive)
GI50 (SK-OV-3): > 53 µM (inactive)
GI50 (Malme-3M): > 74.5 µM (inactive)
GI50 (HL-60): 16.4 µM (inactive)
GI50 (A498): > 92 µM (inactive)
GI50 (KM12): > 100 µM (inactive)
GI50 (NCI-H226): 5.6 µM (inactive)
GI50 (RPMI-8226): 47.5 µM (inactive)
GI50 (NCI-H522): 17.5 µM (inactive)
GI50 (HOP-18): > 54.7 µM (inactive)
GI50 (ACHN): 23.8 µM (inactive)
GI50 (DMS-273): 15.9 µM (inactive)
GI50 (K562): 15.3 µM (inactive)
GI50 (DMS-114): 30.1 µM (inactive)
GI50 (OVCAR-3): 60.3 µM (inactive)
GI50 (RXF 393): 24.4 µM (inactive)
GI50 (A549): > 64.9 µM (inactive)
GI50 (HCC 2998): > 92.3 µM (inactive)
GI50 (SN12C): 27.2 µM (inactive)
GI50 (HCT-15): 24.3 µM
GI50 (SNB-19): 66.2 µM (inactive)
GI50 (M14): 31.5 µM (inactive)
GI50 (MOLT-4): 10.2 µM (inactive)
GI50 (SK-MEL-2): 99.1 µM (inactive)
GI50 (CAKI-1): 24.8 µM (inactive)
GI50 (XF498): 10.7 µM (inactive)
